One series has as its system TEL-NTRK1-BaF3 cell. In words: TEL-NTRK1-BaF3 cell assay (CellTiter-Glo viability, 72 hours). The series is classed as cell-based. The protocol: (b) A Representative Number of Compounds were Assayed Against TEL-NTRK1-BaF3 Cell.
I. Prepare Compound Plate
Compounds to be assayed were dissolved in 100% DMSO to prepare a […] mother solution, which underwent 3× series dilution to prepare solutions with concentrations of 10 mM, 3.333 mM, 1.111 mM, 0.370 mM, 0.123 mM, 0.041 mM, 0.014 mM, all of which stored in 0.5 mL sterile eppendorf (Corning, N.Y., USA). At the same time prepare a blank sample as control containing DMSO only with the same volume as the compound solutions. The 9 samples on the Compound plate were store at −20° C. in vacuum.
II. Cell Culture Conditions
TEL-NTRK1-BaF3 cell line was cultured in RPMI 1640 (Corning, N.Y., USA)+10% fetal calf serum (Gibco/Invitrogen, USA) for two generations after resuscitation. Stored for future use.
III. Assay and Data Analysis
Cells (2,000-2,500 cells per well) at log phase were harvested and inoculated in wells of a white, opaque cell culture plate (Corning 3570, NY, USA). The volume of suspensions comprising cells in each well was 100 μL. Compounds from the Compound plate were added 0.1 μL per well to the cell culture plate to reach a final compound concentrations of 10 μM, 3.3 μM, 1.1 μM, 0.37 μM, 0.12 μM, 0.04 μM, and 0.014 μM. Incubated at 37° C. and 5% CO2 culture chamber for 72 hours. Ten μL CellTiter-Glo® Luminescent Cell Viability Assay Reagent was added to each well, wait for 10 minutes, then read using Evision Plate-Reader.
The following Table B lists compounds representative of the disclosure and their activity in TEL-NTRK1-BaF3 Cell assay.

Series [1] is described as follows: Solubility measurement in pH 4.0 buffer (HPLC). The series is classed as physicochemical. The settings on record: pH 4.0 buffer solution (20 mM), aqueous buffer, thermodynamic from solid; pH 4.0 buffer (20 mM), 25° C. The protocol:
(c) Solubility Measurement of a Representative Number of Compounds
Solubility measurement procedure may include:
Preparation of reference standard solution: 2 mg of the testing compound was added individually to 100 mL volumetric flask each. The compound was diluted with acetonitrile to 100 mL.
Preparation of sample solution: 2 mg of the testing compound was added individually to 2 mL eppendorf tube (EP), followed by the addition of 1 mL of pH 4.0 buffer solution (20 mM). The solution was shaken for 2 minutes and left for 30 minutes at 25° C. After standing for 30 minutes, precipitate was formed at the bottom of the EP. The solution was filtered through a 0.2 μm membrane filter, and then diluted by 50 times with water.
The standard and sample solutions were injected into the HPLC on a Shim-Pack CLC-ODS C18 column (150 mm×6.0 mm, Sum) with the same volume. The mobile phase consists of acetonitrile with 2% trichloromethane—20 mM KH2PO4 buffer (pH=7.0) at a flow rate of 1 mL/minutes (40:60). The detection wavelength was at 264 nm. Calculation: solubility of sample=the concentration of standard×Area of sample×50/Area of standard.
The following Table C lists solubility data for selected compounds.

Series [2] in a line: Pharmacokinetic study, IV and oral, bioavailability. The series is classed as in vivo. The settings on record: plasma, oral; rat; 2 mg/kg IV, 5 mg/kg orally; read-out: F (%) oral bioavailability. The text has this:
(d) Pharmacokinetic Study of a Representative Number of Compounds A representative protocol for the PK (pharmacokinetic) assay was as followed: Compounds were given either IV or orally to the same animals. […] Analysis: LC-MS/MS was used to calculate PK parameters: t1/2, tmax, Cmax, Vss and AUC, etc. The following TABLE D lists selected compounds and their bioavailability.

Series [3] is described as follows: Brain penetration (brain to plasma ratio). The series is classed as in vivo.
Series [4] in a line: One-month toxicity study in rat. Format: in vivo. The settings on record: 30 mg/kg and 100 mg/kg, end of administration and recovery periods. The protocol:
A representative number of compounds, including Compound 1 (LOXO-101) and Compound 3, were tested in a typical one-month toxicity studies in rat with dosages of 30 mg/kg and 100 mg/kg.

A further series deals with TRK-A (Homo sapiens (Human), UniProt P04629). Description: In vitro kinase activity inhibition assay (Caliper), TRK-A. Format: biochemical. On the procedure: (§1) (a) An In Vitro Assay which Determines the Ability of a Test Compound to Inhibit Kinase Activity
TRK-A, sequence (P04629 33-796, species assumed): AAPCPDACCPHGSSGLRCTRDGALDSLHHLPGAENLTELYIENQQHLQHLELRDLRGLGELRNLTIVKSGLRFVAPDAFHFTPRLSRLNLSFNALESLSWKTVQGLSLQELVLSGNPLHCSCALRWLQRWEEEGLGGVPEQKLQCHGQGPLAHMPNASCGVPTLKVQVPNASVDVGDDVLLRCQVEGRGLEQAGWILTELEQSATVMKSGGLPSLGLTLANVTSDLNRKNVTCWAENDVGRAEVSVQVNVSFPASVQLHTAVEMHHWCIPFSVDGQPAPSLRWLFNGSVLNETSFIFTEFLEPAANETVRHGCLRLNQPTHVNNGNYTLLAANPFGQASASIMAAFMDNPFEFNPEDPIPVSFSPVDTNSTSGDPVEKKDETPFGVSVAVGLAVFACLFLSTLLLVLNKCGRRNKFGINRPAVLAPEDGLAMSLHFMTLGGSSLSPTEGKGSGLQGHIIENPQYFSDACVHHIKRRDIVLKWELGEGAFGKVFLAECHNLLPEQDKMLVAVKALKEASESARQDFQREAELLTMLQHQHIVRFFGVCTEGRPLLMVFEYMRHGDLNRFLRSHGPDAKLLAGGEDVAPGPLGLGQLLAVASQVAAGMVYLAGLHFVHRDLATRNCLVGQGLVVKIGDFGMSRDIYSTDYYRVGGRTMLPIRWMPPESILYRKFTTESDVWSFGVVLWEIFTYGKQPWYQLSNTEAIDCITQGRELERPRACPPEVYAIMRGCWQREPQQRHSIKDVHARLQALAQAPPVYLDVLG
(§2) I. Prepare 1× Kinase Base Buffer and Stop Buffer for Testing Kinases
1) 1× Kinase base buffer (for TRK-A)
(§3) II. Prepare Source Plate with Compound
(§4) 1) Dilute the compound to 50× of the final concentration in reaction by 100% DMSO. Transfer 100 μl of this compound dilution to a well in a 96-well plate. For example, if the desired highest inhibitor concentration is 10 μM, then prepare a 500 μM of compound DMSO solution in this step.
(§5) 2) Perform 3× series dilution of the compound dilution obtained in step 1) with 100% DMSO to provide 9 more diluted solutions of the compound.
(§6) 3) Add 100 μl of 100% DMSO to two empty wells for no compound control and no enzyme control in the same 96-well plate. Mark the plate as source plate.
(§7) 4) Prepare intermediate plate
(§8) Transfer 10 μl of compound from the source plate to a new 96-well plate as the intermediate plate.
(§9) Add 90 μl of 1× Kinase base buffer to each well of the intermediate plate.
(§10) Mix the compounds in intermediate plate for […] on a shaker.
Transfer 5 μl of each well from the 96-well intermediate plate to a 384-well plate in duplicates. For example, A1 of the 96-well plate is transferred to A1 and A2 of the 384-well plate. A2 of the 96-well plate is transferred to A3 and A4 of the 384-well plate, and so on. […]

Another series concerns the target ROS1 (Homo sapiens (Human), UniProt P08922). In words: In vitro kinase activity inhibition assay (Caliper), ROS1. Format: biochemical. The settings on record: read-out: ROS-1 IC50. On the procedure:
as §1, §2, §3, §4, §5, §6, §7, §8, §9, §10
Transfer 5 μl of each well from the 96-well intermediate plate to a 384-well plate in duplicates. For example, A1 of the 96-well plate is transferred to A1 and A2 of the 384-well plate. A2 of the 96-well plate is transferred to A3 and A4 of the 384-well plate, and so on.
1) Prepare 2.5× enzyme solution Add kinase in 1× kinase base buffer. […]

This is an account of results in US11344553B2, “Substituted pyrazolopyrimidines useful as kinases inhibitors” (TELIGENE LTD, priority 2017, dated 2022).

In brackets after ≈: the same amount, converted by molar mass. Like-named read-outs stand apart in the source and are kept apart here.

ROS1, sequence (P08922 28-2347, species assumed): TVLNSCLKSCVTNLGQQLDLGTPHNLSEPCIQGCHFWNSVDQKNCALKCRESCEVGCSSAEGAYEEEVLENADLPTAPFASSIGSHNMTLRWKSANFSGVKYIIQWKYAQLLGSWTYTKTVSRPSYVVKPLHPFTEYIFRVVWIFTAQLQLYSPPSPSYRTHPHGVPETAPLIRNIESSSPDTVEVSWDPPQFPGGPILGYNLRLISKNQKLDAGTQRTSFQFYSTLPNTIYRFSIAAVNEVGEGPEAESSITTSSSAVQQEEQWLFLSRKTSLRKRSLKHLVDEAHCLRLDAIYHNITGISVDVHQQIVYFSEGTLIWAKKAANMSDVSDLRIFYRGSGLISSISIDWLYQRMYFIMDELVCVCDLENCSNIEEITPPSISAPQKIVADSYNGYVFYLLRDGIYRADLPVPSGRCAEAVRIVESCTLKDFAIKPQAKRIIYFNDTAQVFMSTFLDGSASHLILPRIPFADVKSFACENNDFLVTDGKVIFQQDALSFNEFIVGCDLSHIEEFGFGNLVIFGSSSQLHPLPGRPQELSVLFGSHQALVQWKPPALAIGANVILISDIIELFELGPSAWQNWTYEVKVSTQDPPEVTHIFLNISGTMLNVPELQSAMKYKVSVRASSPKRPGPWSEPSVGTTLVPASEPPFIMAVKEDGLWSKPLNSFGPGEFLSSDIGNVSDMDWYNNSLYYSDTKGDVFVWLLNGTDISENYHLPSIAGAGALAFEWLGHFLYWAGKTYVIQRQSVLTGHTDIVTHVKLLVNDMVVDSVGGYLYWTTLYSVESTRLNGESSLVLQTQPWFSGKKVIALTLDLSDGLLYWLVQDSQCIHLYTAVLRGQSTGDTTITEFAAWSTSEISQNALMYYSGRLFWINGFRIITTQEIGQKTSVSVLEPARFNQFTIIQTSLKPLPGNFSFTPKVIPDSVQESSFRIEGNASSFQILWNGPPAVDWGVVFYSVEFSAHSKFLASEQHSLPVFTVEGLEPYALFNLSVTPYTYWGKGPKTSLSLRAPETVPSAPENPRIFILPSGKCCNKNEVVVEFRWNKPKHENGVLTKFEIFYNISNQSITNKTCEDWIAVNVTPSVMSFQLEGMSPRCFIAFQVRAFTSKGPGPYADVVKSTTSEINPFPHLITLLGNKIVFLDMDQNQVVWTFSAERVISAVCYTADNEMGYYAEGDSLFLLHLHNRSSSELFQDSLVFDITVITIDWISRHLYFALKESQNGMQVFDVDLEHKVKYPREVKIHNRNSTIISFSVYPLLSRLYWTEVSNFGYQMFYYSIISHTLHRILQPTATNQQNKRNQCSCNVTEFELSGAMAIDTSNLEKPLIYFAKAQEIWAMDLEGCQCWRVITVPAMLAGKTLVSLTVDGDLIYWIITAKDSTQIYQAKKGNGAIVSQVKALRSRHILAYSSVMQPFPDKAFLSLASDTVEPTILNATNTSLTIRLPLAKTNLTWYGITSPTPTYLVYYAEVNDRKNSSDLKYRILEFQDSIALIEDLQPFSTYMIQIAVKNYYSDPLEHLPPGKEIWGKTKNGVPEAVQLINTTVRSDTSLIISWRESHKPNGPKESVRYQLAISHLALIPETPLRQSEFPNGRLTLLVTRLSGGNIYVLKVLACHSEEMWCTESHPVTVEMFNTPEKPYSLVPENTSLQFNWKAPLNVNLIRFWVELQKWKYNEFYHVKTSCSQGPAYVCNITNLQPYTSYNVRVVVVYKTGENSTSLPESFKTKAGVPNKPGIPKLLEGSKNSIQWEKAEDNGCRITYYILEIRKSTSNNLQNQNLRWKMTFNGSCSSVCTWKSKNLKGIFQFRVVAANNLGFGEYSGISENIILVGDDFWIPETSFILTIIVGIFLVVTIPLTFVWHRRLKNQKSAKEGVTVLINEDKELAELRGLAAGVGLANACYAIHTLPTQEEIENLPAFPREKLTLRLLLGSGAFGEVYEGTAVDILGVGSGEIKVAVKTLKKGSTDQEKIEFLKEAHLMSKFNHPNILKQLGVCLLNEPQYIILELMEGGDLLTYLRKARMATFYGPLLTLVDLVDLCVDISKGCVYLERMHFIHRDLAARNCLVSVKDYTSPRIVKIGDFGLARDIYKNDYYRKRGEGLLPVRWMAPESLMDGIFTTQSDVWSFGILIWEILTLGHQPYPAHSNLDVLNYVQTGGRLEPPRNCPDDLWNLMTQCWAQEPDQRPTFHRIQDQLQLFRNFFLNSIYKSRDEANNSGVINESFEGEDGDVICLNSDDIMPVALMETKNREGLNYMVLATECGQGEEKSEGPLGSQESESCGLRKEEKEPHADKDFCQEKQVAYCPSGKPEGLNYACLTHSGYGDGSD

Regarding `O=C(Nc1cnn2ccc(N3CCC[C@@H]3c3cc(F)ccc3F)nc12)N1CC[C@H](O)C1` [Compound 1, reference compound], it took 25 nM to inhibit growth in the series with TEL-NTRK1-BaF3 cell (72 h) by half (GI50). Moreover, in series [1], the concentration in solution (solubility) was 310 µg/mL (≈ 724 µM). For the same compound, in series [2], the bioavailability came out at 33%. The brain penetration entry in series [3] (in vivo) is on record as “low brain penetration”. In addition, in series [4], the “#LYMPH and/or % LYMPH in blood” value is “slight decrease” and the “#NEUT and/or % NEUT in blood” value was “slight increase trend”.
`CN1CCN(Cc2ccc(C(=O)Nc3cnn4ccc(N5CCC[C@@H]5c5cc(F)ccc5F)nc34)cc2)CC1` [Compound 2]: the half-inhibitory concentration (IC50) against TRK-A is 1.8 nM. The same compound returned a GI50 in the series with TEL-NTRK1-BaF3 cell below 1 nM.
As to `CN1CCN(Cc2ccc(C(=O)Nc3cnn4ccc(N5CCC[C@@H]5c5cc(F)ccc5F)nc34)cc2)CC1` [Compound 3], the IC50 against TRK-A came out at 3 nM; at ROS1 it was 104 nM. The 50% growth inhibitory concentration (GI50) in the series with TEL-NTRK1-BaF3 cell turned out to be 3 nM. In series [1], this compound had a solubility of 36100 µg/mL (≈ 67900 µM). Moreover, the bioavailability in series [2] was found to be 56%. For the same compound, in series [3] (brain), the Kp was determined as 5.47.
In turn, `CCS(=O)(=O)Nc1ccc(C(=O)Nc2cnn3ccc(N4CCC[C@@H]4c4cc(F)ccc4F)nc23)cc1` [Compound 4] came in with a GI50 in the series on TEL-NTRK1-BaF3 cell (72 h) of 24 nM. Moreover, the solubility in series [1] came out at 310 µg/mL (≈ 589 µM).
